Measured values taken from patent US20180289843A1, “COATING FOR METAL NANOPARTICLES” (AGENCY FOR SCIENCE, TECHNOLOGY AND RESEARCH, priority 2015, published 2018).
Where a SMILES comes first, the peptide text is derived from it. [ ]: non-standard residue; d: D form. The star is where a group is joined. pS = N[C@@H](COP(=O)(O)O)C(=O)O; Thr(ol) = C[C@@H](O)[C@H](N)CO; X1 = O=C(COP(=O)(O)O)*

Columns and labels:
[1] = Normalized aggregation parameter (NAP) by UV-visible absorbance; type: physicochemical; settings: single ligand shell
Description: UV-visible spectra were recorded at room temperature using a Molecular Probes (Oregon, USA) Spectramax 384-well spectrometer, using a 1 cm path length quartz cuvette, and a fixed slit width of 2 nrn. The spectrometer was calibrated daily using the machine's ‘Auto-Calibrate’ air calibration.
To allow the comparison of results from different ligand exchange experiments, the aggregation parameter (AP) was defined as follows: […]
A460 nm and A300 nm are absorbance values of solutions of nanoparticles at 460 nm and 300 nm, respectively. The empiric wavelength of 460 nm has been chosen to reflect the aggregated state of the nanoparticles. Aref460 nm and Aref300 nm are absorbance values of water at 460 nm and 300 nm. To allow comparison of results obtained with different ligand shells, this primary aggregation parameter was then normalized by dividing the aggregation parameter values of each experiment by the initial aggregation parameter value of the same experiment before the stability test. This provides a Normalized Aggregation Parameter (NAP). […] An increase of the NAP indicates the instability and eventually aggregation of the nanoparticles.

[2] = Electrolyte-induced aggregation stability test (NaCl, PBS) followed by UV-visible spectrometry; type: physicochemical; settings: prepared in PBS and Tween 20, two days
Description: The stability of the nanoparticles was followed by UV-visible spectrometry. A decrease of absorbance indicates the aggregation of the nanoparticles. […] The four single peptide ligand shells were evaluated for their potential to stabilize the iron oxide nanoparticles against electrolyte-induced aggregation. The nanoparticles were mixing with a range of concentration of NaCl (0.1 mM to 1 M) at room temperature. The stability of the nanoparticles was followed by UV-visible spectrophotometry and the normalized aggregation parameters were determined. […] The aggregation of all nanoparticles were observed also in PBS buffer (with 100 mM NaCl) after few hours. […] This represents a promising result since the utilization of the peptide coated iron nanoparticles in vitro and in vivo are performed at 37° C. All the mixed peptide ligand shells providing sufficient yield of nanoparticles were evaluated for electrolyte-induced aggregation stability by mixing the nanoparticles with a range of concentration of NaCl (0.1 mM to 1 M) at room temperature. […] This represents again a promising results since the utilisation of the peptide coated iron nanoparticles in vitro and in vivo are performed at 37° C.

[3] = prepared using PBS and Tween 20

Molecule | NAP (normalized aggregation parameter) ([1]; prepared using water only) | also measured
H-[pS]VVV[Thr(ol)] [Peptide S13] | (1.23 ± 0.13) | NAP (normalized aggregation parameter) [1, 3]: 2.23 ± 0.34
O=P(O)(O)SCCCCCCCCCCCOCCOCCOCCOCCOCCOCCO [Ligand L2, (HO)2-PO-S-C11-EG6-OH] | (1.31 ± 0.04) | 
PO3H2-O-CH2-CO-Ser(PO3H2)-NH-PEG4-OH [Peptide S7] | (1 ± 0.02) | NAP (normalized aggregation parameter) [1, 3]: 1.33 ± 0.08
PO3H2-O-CH2-CO-Gly-NH-PEG4-OH [Peptide S5] | (1.21 ± 0.21) | 
O=P(O)(O)SCCCCCCCCCCCOCCOCCOCCO [Ligand L1, (HO)2-PO-S-C11-EG3-OH] | (1.25 ± 0.08) | 
CC(C)[C@H](NC(=O)[C@H](COP(=O)(O)O)NC(=O)COP(=O)(O)O)C(=O)N[C@H](C(=O)N[C@H](C(=O)N[C@H](CO)[C@@H](C)O)C(C)C)C(C)C [Peptide S14, PO3H2-O-CH2-CO-Ser(PO3H2)-Val-Val-Val-Thr-ol] (X1-[pS]VVV[Thr(ol)]) |  | Stability in PBS buffer at 37° C. ([2]; 37° C.): same high stability; Stability in 1 M NaCl ([2]; room temperature): high stability; Stability in PBS buffer at room temperature ([2]; room temperature): high stability
PO3H2-O-CH2-CO-Ser(PO3H2)-NH-PEG4-ol [Peptide S8] | (1 ± 0.01) | 
